Test results reported in PMC8305076, “Comprehensive Evaluation of Biological Effects of Pentathiepins on Various Human Cancer Cell Lines and Insights into Their Mode of Action” (International Journal of Molecular Sciences, 2021).
Where two headings read alike, the source gives them in different places.

Experiments:
Assay in all cases: MTT cell viability assay
Assay type in all cases: cell-based
HAP-1 = details: Homo sapiens; for IC50: HAP1, 48 h; for IC90: HAP1, calculated via GraphPad QuickCalcs from MTT IC50 and slope factor
Method: (§1) Distinct MTT cell viability and crystal violet cell proliferation assays were performed to assess the cytotoxicity of the compounds 1–6 on 14 human cancer cell lines. In the viability assay, cells with intact mitochondria and thus active dehydrogenases are competent to convert MTT to the corresponding insoluble formazan. The formazan can be photometrically detected after solubilization and allows for indirect conclusions about the viability of the cells as an IC50 value. In the crystal violet assay, cells are stained by the binding of the dye to the chromatin, thus allowing for a quantification of biomass that remains adherent after a treatment in comparison with a control after a specific time. Potency is defined as the growth inhibitory concentration 50% (GI50).
(§2) In addition to performing the cell viability assay under normoxia (19% atmospheric oxygen), incubations were also conducted under hypoxic conditions, i.e., atmospheric oxygen levels of 1% during the treatment for 48 h. Hypoxia is a favorable condition of the tumor microenvironment that is connected with poor outcome. Therefore, the low oxygen condition mimics better the tumor environment. The biological effect of the pentathiepins under this condition provides insight into their dependency for oxygen, which has been postulated a key component in the proposed mechanism of action (Figure 3). Consistent with the proposed mechanism of action for five of the compounds, potency decreased under hypoxic conditions; in fact for 6, the half-maximal inhibitory concentration exceeded the highest tested concentration of 10 µM in four cell lines (Figure 6, Table S3). […] In contrast to the other compounds, in some cell lines, the cytotoxic effects of 1 were more pronounced under oxygen-reduced incubation conditions (Figure 6), indicating a tangential role of oxygen availability for this pentathiepin. Especially for the breast cancer cell line MCF-7, the cytotoxicity increased substantially, indicated by a decrease of the IC50 from >10.0 µM to about 1.0 µM.
(§3) The effect of the pentathiepins on the viability of the cell lines was assessed via an MTT assay, performed as previously described. Healthy and viable cells convert the yellow soluble 3-(4,5-dimethylthiazol-2-yl)-2,5-diphenyltetrazolium bromide to the insoluble purple corresponding formazan, which can be spectrophotometrically measured. For this assay, 5000 cells (1 250 for LCLC-103H) in 0.1 mL of medium were seeded per well of a 96-well plate and incubated at standard conditions for 24 h prior to treatment. A serial dilution of the test compounds was prepared in medium, covering final concentrations from 10.0 to 0.04 µM, and 0.1 mL of the working solution was added to each well in triplicate. After 48 h, 20 µL of a 2.5 mg/mL MTT in PBS solution was pipetted into each well and further incubated for 4 h at standard conditions. Thereafter, medium was replaced with 50 µL DMSO, and the plates were put on a shaker for 5 min and subsequently read at λ = 570 nm, with a SpectraMax 384plus (Molecular Devices, Sunnyvale, CA, USA). The cell viabilities of the treatment conditions were calculated in relation to a solvent control sample. The absolute IC50 was calculated via nonlinear regression followed by interpolation of the dose–response graphs in Prism 7 (GraphPad, San Diego, CA, USA). The IC90 was derived from the IC50 by using the slope factor of the dose–response graph with the tool QuickCalcs from GraphPad (GraphPad Software, San Diego, CA, USA).

RT-4 = details: Homo sapiens, 48 h
Method: as §1, §2, §3

LCLC-103H = details: Homo sapiens, 48 h
Method: as §1, §2, §3

A2780cis = details: Homo sapiens, 48 h
Method: as §1, §2, §3

Siso = details: Homo sapiens; for IC50: 48 h; for IC90: calculated via GraphPad QuickCalcs from MTT IC50 and slope factor
Method: as §1, §2, §3

Kyse-70 = details: Homo sapiens, 48 h
Method: as §1, §2, §3

RT-112 = details: Homo sapiens, 48 h
Method: as §1, §2, §3

DanG = details: Homo sapiens; for IC50: 48 h; for IC90: calculated via GraphPad QuickCalcs from MTT IC50 and slope factor
Method: as §1, §2, §3

A2780 = details: Homo sapiens; for IC50: 48 h; for IC90: calculated via GraphPad QuickCalcs from MTT IC50 and slope factor
Method: as §1, §2, §3

HAP-1.KO.GPx1 = details: Homo sapiens; for IC50: 48 h; for IC90: calculated via GraphPad QuickCalcs from MTT IC50 and slope factor
Method: as §1, §2, §3

A-427 = details: Homo sapiens, 48 h
Method: as §1, §2, §3

PATU-8902 = details: Homo sapiens; for IC50: 48 h; for IC90: calculated via GraphPad QuickCalcs from MTT IC50 and slope factor
Method: as §1, §2, §3

YAPC = details: Homo sapiens; for IC50: 48 h; for IC90: calculated via GraphPad QuickCalcs from MTT IC50 and slope factor
Method: as §1, §2, §3

[1] = hypoxic (1% O2), read-out: IC50 MTT-H mean
[2] = normoxic (19% O2), read-out: IC50 MTT-N mean

CCOc1c2c(c3ccc(C(=O)N4CCN(S(=O)(=O)c5ccc(C)cc5)CC4)cn13)SSSSS2 [Compound 6, (6-Ethoxy-[1,2,3,4,5]pentathiepino[6,7-a]indolizin-9-yl)(4-tosylpiperazinyl)methanone]
IC50 (HAP-1; [1]): 1320 nM | IC50 (HAP-1; [2]): 722 nM | IC90 (HAP-1): 1460 nM | IC50 (RT-4; [1]): 5050 nM | IC50 (RT-4; [2]): 1550 nM | IC50 (LCLC-103H; [1]): 2530 nM | IC50 (LCLC-103H; [2]): 2820 nM | IC50 (A2780cis; [1]): 1720 nM | IC50 (A2780cis; [2]): 1510 nM | IC50 (Siso; [1]): > 10000 nM | IC50 (Siso; [2]): 3260 nM | IC90 (Siso): 5070 nM | IC50 (Kyse-70; [1]): > 10000 nM | IC50 (Kyse-70; [2]): 1950 nM | IC50 (RT-112; [1]): > 10000 nM | IC50 (RT-112; [2]): 3410 nM | IC50 (DanG; [1]): > 10000 nM | IC50 (DanG; [2]): 2180 nM | IC90 (DanG): 4940 nM | IC50 (A2780; [1]): 2110 nM | IC50 (A2780; [2]): 891 nM | IC90 (A2780): 2390 nM | IC50 (HAP-1.KO.GPx1; [1]): 1840 nM | IC50 (HAP-1.KO.GPx1; [2]): 778 nM | IC90 (HAP-1.KO.GPx1): 1460 nM | IC50 (A-427; [1]): 1390 nM | IC50 (A-427; [2]): 1790 nM | IC50 (PATU-8902; [1]): > 10000 nM | IC50 (PATU-8902; [2]): 2980 nM | IC90 (PATU-8902): 7580 nM | IC50 (YAPC; [1]): 3720 nM | IC50 (YAPC; [2]): 5170 nM | IC90 (YAPC): 17900 nM

CCOc1c2c(c3ccc(C(=O)N4CCCCC4)cn13)SSSSS2 [Compound 2, (6-Ethoxy-[1,2,3,4,5]pentathiepino[6,7-a]indolizin-9-yl)(piperidinyl)methanone]
IC50 (HAP-1; [1]): 847 nM | IC50 (HAP-1; [2]): 600 nM | IC90 (HAP-1): 1180 nM | IC50 (RT-4; [1]): 5900 nM | IC50 (RT-4; [2]): 1600 nM | IC50 (LCLC-103H; [1]): 1540 nM | IC50 (LCLC-103H; [2]): 1360 nM | IC50 (A2780cis; [1]): 637 nM | IC50 (A2780cis; [2]): 652 nM | IC50 (Siso; [1]): 2960 nM | IC50 (Siso; [2]): 1380 nM | IC90 (Siso): 2700 nM | IC50 (Kyse-70; [1]): 2100 nM | IC50 (Kyse-70; [2]): 1580 nM | IC50 (RT-112; [1]): 1720 nM | IC50 (RT-112; [2]): 1340 nM | IC50 (DanG; [1]): 4350 nM | IC50 (DanG; [2]): 1990 nM | IC90 (DanG): 3060 nM | IC50 (A2780; [1]): 804 nM | IC50 (A2780; [2]): 430 nM | IC90 (A2780): 1000 nM | IC50 (HAP-1.KO.GPx1; [1]): 1190 nM | IC50 (HAP-1.KO.GPx1; [2]): 644 nM | IC90 (HAP-1.KO.GPx1): 1200 nM | IC50 (A-427; [1]): 1080 nM | IC50 (A-427; [2]): 1460 nM | IC50 (PATU-8902; [1]): 3150 nM | IC50 (PATU-8902; [2]): 1720 nM | IC90 (PATU-8902): 6520 nM | IC50 (YAPC; [1]): 2230 nM | IC50 (YAPC; [2]): 1550 nM | IC90 (YAPC): 4260 nM
